We go through twelve compounds from patent US12024507B2, “Compounds as GLP-1R agonists” (Terns Pharmaceuticals, Inc., priority 2021, dated 2024).

By EC50 is commonly meant the concentration that produces a half-maximal response. The term CLint scaled denotes the rate of metabolic loss divided by the concentration. A lower CLint scaled goes with greater metabolic stability.

The target in one series is T1, human GLP-1R receptor (Homo sapiens, UniProt P43220).
T1 construct: expressed in transfected cells
T1 sequence (P43220 24-463): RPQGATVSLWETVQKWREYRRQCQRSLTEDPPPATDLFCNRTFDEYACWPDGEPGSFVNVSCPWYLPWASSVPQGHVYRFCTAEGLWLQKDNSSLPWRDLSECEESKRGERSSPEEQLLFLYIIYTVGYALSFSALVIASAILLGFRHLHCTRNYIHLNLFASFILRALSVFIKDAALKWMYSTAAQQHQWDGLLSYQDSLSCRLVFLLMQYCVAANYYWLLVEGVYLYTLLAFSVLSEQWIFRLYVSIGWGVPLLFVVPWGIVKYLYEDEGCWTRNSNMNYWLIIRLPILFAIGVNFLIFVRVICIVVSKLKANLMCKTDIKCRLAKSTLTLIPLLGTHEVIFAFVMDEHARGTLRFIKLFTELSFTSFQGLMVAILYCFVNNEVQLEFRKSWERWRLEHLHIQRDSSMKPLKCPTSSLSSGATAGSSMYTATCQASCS
As to the kind of experiment: GLP-1R cell assay (cAMP TR-FRET, low expression CHO-K1_hGLP-1Rlow_clone10 cell line). As to conditions: CHO-K1_hGLP-1Rlow_clone10 cells, relative to control GLP-1 peptide agonist, read-out: GLP1 EC50. Format: cell-based. The procedure: Stable cell lines expressing high and low GLP-1R surface expression were generated in CHO-K1 cells transfected (Fugene 6) with a puromycin selectable DNA plasmid encoding human GLP-1R receptor (accession number: NM_002062.5) under control of an EF1A promoter. Transfected cells were seeded into 24-well plates (9,000 cells/well) containing complete medium and incubated in a humidified incubator at 37° C. with 5% carbon dioxide. After overnight incubation, medium was replaced with complete medium supplemented with puromycin (6 μg/mL) and refreshed every 2-3 days to select for stably transfected cells. Individual pools of selected cells were expanded prior to analysis for responsiveness to GLP-1 control peptide using a TR-FRET assay to detect cAMP (LANCE Ultra cAMP Assay, Perkin Elmer). Briefly, cells were collected in Versene solution, plated in 384-well plates (1,000 cells/well) and combined with serially diluted GLP-1R control peptide (10 nL) using an acoustic dispenser (ECHO). Plates were incubated for 30 minutes at 25° C. prior to the addition of EU-cAMP tracer (5 μL) and Ulight-anti-cAMP (5 μL) reagents to each well, followed by 15 minutes incubation at 25° C. TR-FRET signal was detected using an EnVision Multimode Plate Reader (excitation=320 nm; emission=615 and 655 nm). Dose-response curves were used to generate EC50 values as a measure of responsiveness to the GLP-1R control peptide. Selected cell lines were monitored for responsiveness over multiple passages to ensure stability. […] Briefly, GLP-1R expression was analyzed by flow cytometry using a fluorescein-labeled Exendin-4 peptide fluorescent probe (FLEX). Cells were harvested in Versene solution and washed 3-times with PBS+0.5% BSA before incubation with FLEX reagent (10 μM) for 2 hours at room temperature. After incubation, cells were washed 3-times in PBS+0.5% BSA before final resuspension in PBS prior to analysis by flow cytometry to measure FLEX mean fluorescence intensity (MFI) as a measure of GLP-1R expression on the cell surface.
For compound testing in the CHO-K1_hGLP-1Rlow_clone10 cell line, cells were seeded in 384-well plates (1,000 cells/well). Test compounds were serially diluted in DMSO (10-point, 3-fold dilution), added to wells using an ECHO dispenser (10 nL/well) and plates were centrifuged for 1 min and agitated for 2 min at room temperature prior to 30-minute incubation at 25° C. After incubation, Eu-cAMP (5 μL) and Ulight-anti-cAMP (5 μL) reagents were added to each well, followed by centrifugation for 1 minute, agitation for 2 minutes at room temperature, and final incubation of the plates at 25° C. for 15 minutes. Plates were read using an EnVision microplate reader (excitation=320 nm; emission=615 and 655 nm). Dose-response curves were generated from duplicate wells based on percent activation calculated relative to a control GLP-1 peptide agonist that was run in parallel. EC50 values were determined by fitting percent activation as a function of compound concentration using the Hill equation (XLfit).
The compounds tested were compound samples prepared according to the General Procedures described in the Examples section.
(In general: In TR-FRET formats the signal depends on donor and acceptor labels being close together.)

The nature of series [1]: Metabolic stability in rat hepatocytes. Format: in vitro ADME. The note with it: cryopreserved hepatocytes, 1×10^6 cells/mL; for CLint scaled at 1 μM: intrinsic clearance; for half-life at 1 μM: read-out: Rat T1/2. The procedure:
(§1) Test compounds were incubated in rat and human hepatocytes and stability was assessed from the substrate […] approach. Test compounds were dissolved in dimethyl sulfoxide (DMSO) to create a 10 mM Stock, and then further diluted to create a 1000×Working Stock of 1 mM with DMSO in 96-well plates for test compounds and the positive control (midazolam). Vials containing cryopreserved hepatocytes were removed from the liquid nitrogen tank and immediately immersed in a 37° C. water bath. The vials were shaken gently until the contents had thawed and were then immediately emptied into 48 mL of pre-warmed HT Medium in a 50 mL conical tube. Cells remaining in the vial were resuspended with 1.0 mL of pre-warmed HT Medium and added to the conical tube. The tube was capped and then gently inverted several times to resuspend the hepatocytes. The cell suspension was centrifuged at 50×g at room temperature for 5 minutes and the supernatant discarded. The cell pellet was loosened by gently swirling the centrifuge tube and was re-suspended in 4 mL of warm Dulbecco's Modified Eagle medium (DMEM). Cell density was determined by a cell counter by Nexcelom, and DMEM medium was added to obtain a target density of 1×10^6 cells/mL. The assay was carried out in 96-well microtiter plates. Test Compounds were incubated at 1 μM with 1×10^6 cells/mL hepatocytes in DMEM for 0, 30, 60, 120 and 240 minutes. The incubation was carried out with gentle shaking at 37° C. under a humid atmosphere of 95% air/5% CO2. The volume of the incubation mixture was 37 μL with a final 0.1% DMSO. At each of the time points, the incubation was stopped by adding 150 μL quenching solution (100% acetonitrile, 0.1% formic acid containing bucetin as an internal standard for positive ESI mode). Subsequently, the mixtures were vortexed for 20 min and centrifuged at 4,000 RPM at 10° C. The supernatant (80 μL) was transferred to a clean 96-well plate and analyzed by LC-MS/MS. Midazolam at 1 μM with a final 0.1% DMSO was included as a positive control to verify assay performance. The percent parent remaining, intrinsic and predicted hepatic clearance and t1/2 were calculated. All samples were analyzed by LC-MS/MS using an AB Sciex API 4000 instrument, coupled to a Shimadzu LC-20AD LC Pump system. Separation was achieved using a Waters Atlantis T3 dC18 reverse phase HPLC column (20 mm×2.1 mm) at a flow rate of 0.5 mL/min. The mobile phase consisted of 0.1% formic acid in water (solvent A) and 0.1% formic acid in 100% acetonitrile (solvent B). Elution conditions are detailed below.
(§2) The ion optics of each test compound were optimized for their declustering potential (DP), […] (CE), collision-cell exit potential (CXP) and used in a selected ion monitoring experiment in the positive ion mode. The peak area ratio of each test compound to internal standard was then evaluated for stability. The extent of metabolism was calculated based on the disappearance of the test compound, compared to its initial concentration. The initial rates of clearance of the test compound were calculated using the linear regression plot of semi-log % remaining of the compound versus time.
(§3) The predicted hepatic clearance (CLhep) was calculated using the well stirred method with the following formula with CLint(in vivo) normalized based on liver weight: CLint(in vivo)=CLint×Hepatocellularity×liver weight CLhep predicted=(CLint(in vivo)×Qliver)/(CLint(in vivo)+Qliver) Where Qliver ((ml/min/kg) is Liver Blood Flow
(§4) The relevant physiological parameters of liver weight, blood flow, and hepatocellularity for various species are listed below:
(§5) Results are presented in the Table B3 below for the intrinsic clearance (mL/min/kg) and half-life (t1/2).

Series [2] can be described thus: Metabolic stability in human hepatocytes. Format: in vitro ADME. The note with it: cryopreserved hepatocytes, 1×10^6 cells/mL; for CLint scaled at 1 μM: intrinsic clearance; for half-life at 1 μM: read-out: Human T1/2. How it is done: as §1, §2, §3, §4, §5

Some results are limits rather than exact numbers.

With `N#Cc1ccc(COc2cccc(C3CCN(Cc4nc5ccc(-c6c[nH]c(=O)o6)cc5n4Cc4cncs4)CC3)n2)c(F)c1` [Compound 12, 3-fluoro-4-(((6-(1-((6-(2-oxo-2,3-dihydrooxazol-5-yl)-1-(thiazol-5-ylmethyl)-1H-benzo[d]imidazol-2-yl)methyl)piperidin-4-yl)pyridin-2-yl)oxy)methyl)benzonitrile], the EC50 on human GLP-1R receptor turned out to be 704 nM.
As to `O=c1cc(-c2ccc3nc(CN4CCC(c5cccc(OCc6ccc(Cl)cc6F)n5)CC4)n(C[C@@H]4CCO4)c3c2)o[nH]1` [Compound 6, (S)-5-(2-((4-(6-((4-chloro-2-fluorobenzyl)oxy)pyridin-2-yl)piperidin-1-yl)methyl)-1-(oxetan-2-ylmethyl)-1H-benzo[d]imidazol-6-yl)isoxazol-3(2H)-one], at human GLP-1R receptor, the EC50 worked out at 10.6 nM.
As for `O=c1nc(-c2ccc3nc(CN4CCN(c5cccc(OCc6ccc(Br)cc6F)n5)CC4)n(C[C@@H]4CCO4)c3c2)[nH]o1` [Compound 7, (S)-3-(2-((4-(6-((4-bromo-2-fluorobenzyl)oxy)pyridin-2-yl)piperazin-1-yl)methyl)-1-(oxetan-2-ylmethyl)-1H-benzo[d]imidazol-6-yl)-1,2,4-oxadiazol-5(2H)-one], the EC50 on human GLP-1R receptor is 148 nM.
The same measure, in the same setting: as for `N#Cc1ccc(COc2cccc(C3CCN(Cc4nc5ccc(C6=CC(=O)NC6=O)cc5n4Cc4cncs4)CC3)n2)c(F)c1` [Compound 9, 4-(((6-(1-((6-(2,5-dioxo-2,5-dihydro-1H-pyrrol-3-yl)-1-(thiazol-5-ylmethyl)-1H-benzo[d]imidazol-2-yl)methyl)piperidin-4-yl)pyridin-2-yl)oxy)methyl)-3-fluorobenzonitrile], the figure is 461 nM; as for `N#Cc1ccc(COc2cccc(N3CCN(Cc4nc5ccc(C(=O)NCC(F)(F)F)cc5n4Cc4ncco4)CC3)n2)c(F)c1` [Compound 3, 2-((4-(6-((4-cyano-2-fluorobenzyl)oxy)pyridin-2-yl)piperazin-1-yl)methyl)-1-(oxazol-2-ylmethyl)-N-(2,2,2-trifluoroethyl)-1H-benzo[d]imidazole-6-carboxamide], 5940 nM.
On the same count and under the same terms, as for `CS(=O)(=O)NC(=O)c1ccc2nc(CN3CCN(c4cccc(OCc5ccc(C#N)cc5F)n4)CC3)n(Cc3ncco3)c2c1` [Compound 4, 2-((4-(6-((4-cyano-2-fluorobenzyl)oxy)pyridin-2-yl)piperazin-1-yl)methyl)-N-(dioxo-l5-sulfaneyl)-1-(oxazol-2-ylmethyl)-1H-benzo[d]imidazole-6-carboxamide], the figure is 231 nM.
Turning to `N#Cc1ccc(COc2cccc(C3CCN(Cc4nc5ccc(-c6nnn[nH]6)cc5n4Cc4cncs4)CC3)n2)c(F)c1` [Compound 11, 4-(((6-(1-((6-(1H-tetrazol-5-yl)-1-(thiazol-5-ylmethyl)-1H-benzo[d]imidazol-2-yl)methyl)piperidin-4-yl)pyridin-2-yl)oxy)methyl)-3-fluorobenzonitrile], on human GLP-1R receptor, the EC50 worked out at 53.2 nM. In series [1], the CLint scaled at 1 μM was 68.3 ± 2.52 mL/min/kg and the half-life at 1 μM was 0.812 ± 0.03 h. In series [2], the CLint scaled at 1 μM turned out to be 19.7 ± 0.4 mL/min/kg and the half-life at 1 μM stood at 2.03 ± 0.041 h.
As for `N#Cc1ccc(COc2cccc(C3CCN(Cc4nc5ccc(C(=O)NO)cc5n4C[C@@H]4CCO4)CC3)n2)c(F)c1` [Compound 14, (S)-2-((4-(6-((4-cyano-2-fluorobenzyl)oxy)pyridin-2-yl)piperidin-1-yl)methyl)-N-hydroxy-1-(oxetan-2-ylmethyl)-1H-benzo[d]imidazole-6-carboxamide], the EC50 at human GLP-1R receptor came to 50 nM.
The same measure, in the same setting: as for `N#Cc1ccc(COc2cccc(C3CCN(Cc4nc5ccc(-c6nc(=O)o[nH]6)cc5n4C[C@@H]4CCO4)CC3)n2)c(F)c1` [Compound 5, (S)-3-fluoro-4-(((6-(1-((1-(oxetan-2-ylmethyl)-6-(5-oxo-2,5-dihydro-1,2,4-oxadiazol-3-yl)-1H-benzo[d]imidazol-2-yl)methyl)piperidin-4-yl)pyridin-2-yl)oxy)methyl)benzonitrile], the figure is 45.4 nM; as for `N#Cc1ccc(COc2cccc(C34CCN(Cc5nc6ccc(-c7nnn[nH]7)cc6n5Cc5cncs5)CC3C4)n2)c(F)c1` (centres unmarked) [Compound 10, 4-(((6-(3-((6-(1H-tetrazol-5-yl)-1-(thiazol-5-ylmethyl)-1H-benzo[d]imidazol-2-yl)methyl)-3-azabicyclo[4.1.0]heptan-6-yl)pyridin-2-yl)oxy)methyl)-3-fluorobenzonitrile], 118 nM.
Same read-out and setting: as for `N#Cc1ccc(COc2cccc(C3CCN(Cc4nc5ccc(C6(O)COC6)cc5n4Cc4cncs4)CC3)n2)c(F)c1` [Compound 15, 3-fluoro-4-(((6-(1-((6-(3-hydroxyoxetan-3-yl)-1-(thiazol-5-ylmethyl)-1H-benzo[d]imidazol-2-yl)methyl)piperidin-4-yl)pyridin-2-yl)oxy)methyl)benzonitrile], the figure is > 10000 nM.
Regarding `CC1(c2ccc(C#N)cc2F)Oc2cccc(C3CCN(Cc4nc5ccc(-c6nnn[nH]6)cc5n4C[C@@H]4CCO4)CC3)c2O1` (stereo partly drawn) [Compound 16, 3-fluoro-4-(2-methyl-4-(1-((1-(((S)-oxetan-2-yl)methyl)-6-(1H-tetrazol-5-yl)-1H-benzo [d]imidazol-2-yl)methyl)piperidin-4-yl)benzo[d][1,3]dioxol-2-yl)benzonitrile], the EC50 on human GLP-1R receptor stood at 2.68 nM. In series [1], the intrinsic clearance (CLint scaled) at 1 μM came to 6.93 mL/min/kg and the half-life at 1 μM worked out at 8 h. Also, in series [2], the CLint scaled at 1 μM came out at 6.22 ± 0.55 mL/min/kg and the half-life at 1 μM is 6.44 ± 0.571 h.
